From US5017577A, “Methods for treating viral infection” (Burroughs Wellcome Co., priority 1989, dated 1991)

biological target: T1, adenosine (purine) receptors (Cavia porcellus, UniProt P47745); assay: Guinea pig ileum twitch test: purine receptor antagonism against 2-chloroadenosine (Schild regression); conditions: agonist 2-chloroadenosine
T1 construct: Ilea were removed from sacrificed guinea pigs; from tissue; host or cells: guinea pig ileum
T1 sequence (P47745 1-326): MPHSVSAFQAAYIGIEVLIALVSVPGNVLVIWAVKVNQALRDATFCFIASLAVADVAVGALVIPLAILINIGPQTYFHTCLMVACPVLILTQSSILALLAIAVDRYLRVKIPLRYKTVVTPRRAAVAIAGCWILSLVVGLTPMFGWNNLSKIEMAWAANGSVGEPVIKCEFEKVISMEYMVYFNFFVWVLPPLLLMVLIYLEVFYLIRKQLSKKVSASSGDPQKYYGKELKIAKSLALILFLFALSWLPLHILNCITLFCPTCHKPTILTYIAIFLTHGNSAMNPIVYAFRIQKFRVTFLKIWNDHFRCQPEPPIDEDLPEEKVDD
Description: Accordingly, a representative number of compounds of the present invention were tested for their ability to antagonise the purine receptors using the guinea pig ileum test system.
Ilea were removed from sacrificed guinea pigs and placed in organ baths containing oxygenated Krebs-Henseleit buffer. After equilibration, the ilea were stimulated to contract (twitch contraction) using an electrical field-stimulus of 0.1 Hz, 0.05 ms duration and maximal voltage. Under these conditions, the twitch contraction results from the release of acetylcholine.
Concentration response curves to the purine agonist, 2-chloroadenosine, were determined first in the absence and then in the presnce of multiple concentrations of the compounds of the invention. One concentration of each compound was used per tissue. Quantification of purine receptor antagonism was accomplished using the Schild regression technique, i.e. plots of log (dose-ratio-l) vs log compound concentration, and the pA2 determined by regression of the data points to the x-intercept, where log (dose-ratio-l) is zero.

Point of comparison: `CC(C)Cn1c(=O)c2nc(-c3ccc(/C=C/C(=O)O)cc3)[nH]c2n(CC(C)C)c1=O` [Example 19, (E)-4-(1,2,3,6-tetrahydro-1,3-diisobutyl-2,6-dioxo-9H-purin-8-yl) cinnamic acid], “pA2 guinea pig ileum (slope): slope of Schild regression” value 1.0. Against it:
- CCCCn1c(=O)c2nc(-c3ccc(/C=C/C(=O)O)cc3)[nH]c2n(CCCC)c1=O [Example 14, (E)-4-(1,3-dibutyl-1,2,3,6-tetrahydro-2,6-dioxo-9H-purin-8-yl)cinnamic acid] — the same, 1.0
- O=C(O)/C=C/c1ccc(-c2nc3c(=O)n(Cc4ccccc4)c(=O)n(Cc4ccccc4)c3[nH]2)cc1 [Example 15, (E)-4-(1,3-dibenzyl-1,2,3,6-tetrahydro-2,6-dioxo-9H-purin-8 yl) cinnamic acid] — within 0.2 log units, 0.9
- CCCn1c(=O)n(C)c(=O)c2nc(-c3ccc(/C=C/C(=O)O)cc3)[nH]c21 [Example 11, (E)-4-(1,2,3,6-tetrahydro-1-methyl-2,6-dioxo-3-propyl-9H-purin-8-yl)cinnamic acid] — the same, 1.0
- Cn1c(=O)c2nc(-c3ccc(/C=C/C(=O)O)cc3)[nH]c2n(Cc2ccccc2)c1=O [Example 18, (E)-4-(3-benzyl-1,2,3,6-tetrahydro-1-methyl-2,6-dioxo-9H-purin-8-yl) cinnamic acid] — within 0.2 log units, 0.9
- CCCn1c(=O)c2nc(-c3ccc(/C=C/C(=O)O)cc3)[nH]c2n(CCC)c1=O [Example 6, (E)-4-(1,2,3,6-tetrahydro-2,6-dioxo-1,3-dipropyl-9H-purin-8-yl)cinnamic acid] — within 0.2 log units, 0.9

system: AIDV; assay: Anti-retroviral activity against AIDV; design: species or system AIDV (HTLV III); conditions: in words

`O=C(O)/C=C/c1ccc(-c2nc3c(=O)n(Cc4ccccc4)c(=O)n(Cc4ccccc4)c3[nH]2)cc1` [Example 15, (E)-4-(1,3-dibenzyl-1,2,3,6-tetrahydro-2,6-dioxo-9H-purin-8 yl) cinnamic acid] was tested, and the “anti-retroviral activity, especially against AIDV” value was “especially potent activity against AIDV”.
